Reference: patent publication US20230104477A1, “USE OF DEHYDROASCORBIC ACID AGAINST NEMATODE INFECTION IN PLANTS” (Universiteit Gent, priority 2019, published 2023)

Columns and labels:
M. graminicola = experiment: Infection experiment with JA/ET mutant and biosynthesis inhibitors, foliar spray; type: in vivo, Meloidogyne graminicola; details: 12 days after inoculation
Experimental: M. graminicola originally isolated in the Philippines (Batangas) was cultured on susceptible rice plants. Second stage juveniles (J2s) were extracted using a sieve/tray extraction method and inoculation was done as described in Nahar et al., (2011). For susceptibility assays, at least two independent experiments were carried out, each time including eight plants per treatment. Twelve days after inoculation (dai), roots were stained using acid fuchsine (Nahar et al., 2011) to count galls and number of nematodes in the roots.
Reduced Ascorbic acid (AA, 20 mM), dehydroascorbic acid (DHA, 20 mM), ascorbate oxidase (AO, 20 U/ml), methyl jasmonate (MeJA, 100 μM), aminooxyacetic acid (AoA, 12.5 mM), diethyldithiocarbamic acid (DIECA, 100 μM) and ethephon (100 μM) were purchased from Sigma and dissolved in water (except MeJA that was first dissolved in a drop of ETOH) to attain the indicated concentration.
For foliar application, all chemicals were dissolved in water and 0.02% (v/v) of Tween20 as a surfactant was added prior to spraying on aerial portions of the rice plants. Control plants were sprayed with distilled water containing 0.02% Tween20. Eight plants per treatment were sprayed until run-off with 6.5 mL of solution (at 24 h prior to nematode inoculation, in cases where infected plants were used). The substrate was covered to avoid direct contact with the roots and/or nematodes.

[1] = system: Phenylalanine ammonia lyase (PAL); experiment: PAL activity measurements in treated rice plants; type: in vivo; details: 20 mM DHA foliar spray; for PAL-activity in galls in comparison with uninfected root tips: M. graminicola infected
Experimental: PAL activity measurements—14 days old rice plants were foliar sprayed with 20 mM DHA and 1 day later, plants were inoculated with Meloidogyne graminicola nematodes (Mg+) or mock inoculated (Mg−). Three or seven days after inoculation, samples were collected. Both galls and systemic tissue (shoots) were collected. Samples were flash-frozen and ground under liquid nitrogen. Per sample, 100 mg of material was used to execute PAL-activity measurement according to Camacho-Cristobal et al. (2002). PAL was assayed by measuring the formation of trans-cinnamic acid at 290 nm. Samples were dissolved in 800 μl of 50 mM sodium phosphate as assay buffer containing 2% (w/v) poly-vinylpolypyrrolidone (PVPP), 2 mM EDTA, 18 mM-mercaptoetanol and 0.1% (v/v) Triton X-100. The homogenate was centrifuged at 8000 rpm, 4° C. for 10 min. In different 2 ml tubes, 135 μl of reaction buffer, 50 μl of 5 mM of L-phenlyalanine, and 20 μl of supernatant were mixed and absorbance at 290 nm was measured before incubation at 40° C. for 30 minutes. Then, 10 μl of hydrochloric acid was added and measurement was again done at the same wavelength. The assay was done with 4 biological replicates, which each consisted of pooled material of 4 plants.

O=C1O[C@H]([C@@H](O)CO)C(=O)C1=O [DHA, (5R)-5-[(1S)-1,2-dihydroxyethyl]furan-2,3,4(5H)-trione]
reduction in number of galls (M. graminicola; Osjarl (JA signalling) mutants sprayed with DHA 20 mM): 25-30%
reduction in number of galls (M. graminicola; wild-type Nipponbare sprayed with DHA 20 mM vs unsprayed wild-type): 50-70%
PAL-activity in systemic shoot tissues of infected versus uninfected plants ([1]; 3 dpi): strongly enhanced
PAL-activity in systemic shoot tissues of infected versus uninfected plants ([1]; 7 dpi): strongly enhanced
PAL-activity in galls in comparison with uninfected root tips ([1]; 3 dpi): strongly enhanced
PAL-activity in galls in comparison with uninfected root tips ([1]; 7 dpi): strongly enhanced
